This is an account of results in patent US9453014B2, “Cyclic amide derivatives as inhibitors of 11-β-hydroxysteroid dehydrogenase and uses thereof” (CONNEXIOS LIFE SCIENCES PVT. LTD., priority 2011, dated 2016).

For orientation: IC50 means the concentration that inhibits the measured activity by half.

The assay deals with T1, human full length HSD11 β 1 (Homo sapiens, UniProt P28845).
T1 construct: transient expression of human full length HSD11 β 1 expression vector; host or cells: CHO cells (transient transfection)
Description: In Vitro HSD11β1 Inhibition Assay. It is filed as cell-based. As to conditions: CHO cells transiently expressing human HSD11β1; 200 nM cortisone+500 uM NADPH overnight; cortisone to cortisol by LC/MS-MS; read-out: 11βHSD1 (IC50). The protocol:
In Vitro HSD11β1 Inhibition Assay:
CHO cells were maintained in Dulbecco's modified Eagle's medium/nutrient mixture F-12 containing 5% fetal bovine serum (v/v) and 2 mM glutamine. Cells were cultured at 37° C. with 5% CO2. For transient expression of human full length HSD11 β 1 expression vector (OriGene Technologies), cells were seeded at a density of 2×10^5 cells/well in a 6-well plate. Transfection was done using Turbofectin8 reagent (OriGene Technologies), according to the protocol provided with the reagent. After 24 hours post-transfection, cells were trypsinized and pooled together before they were re-seeding to 96-well plate at a density of 40000 cells/well. 24 hours after re-seeding, cells were incubated with 200 nM cortisone+500 uM NADPH (or along with small molecule inhibitors) overnight. The enzymatic activity or inhibition of enzyme activity was measured by estimating the conversion of cortisone to cortisol by LC/MS-MS method. The IC50 in nM was calculated from an 8 point log scale of concentration versus inhibition.

T1 sequence (P28845 whole entry): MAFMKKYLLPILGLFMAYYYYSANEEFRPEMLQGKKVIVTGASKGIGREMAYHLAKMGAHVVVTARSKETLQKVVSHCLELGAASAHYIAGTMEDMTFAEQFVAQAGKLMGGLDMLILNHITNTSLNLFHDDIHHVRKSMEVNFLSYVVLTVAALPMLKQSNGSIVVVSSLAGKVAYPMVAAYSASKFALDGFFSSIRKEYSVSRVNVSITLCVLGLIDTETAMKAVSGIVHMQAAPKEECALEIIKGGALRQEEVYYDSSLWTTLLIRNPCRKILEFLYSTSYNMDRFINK

With `CC(CC(=O)N1CCCC2C(C(=O)O)CCCC21)c1c[nH]c2cccc(-c3ccc(F)o3)c12` (single isomer, unassigned) [Compound 248, 1-{3-[4-(5-fluorofuran-2-yl)-1H-indol-3-yl]butanoyl}decahydroquinoline-5-carboxylic acid], the IC50 is less than 100 nM.

As for `CC(CC(=O)N1CCCC2C(C(=O)O)CCCC21)c1c[nH]c2cccc(-c3ccc(F)o3)c12` (single isomer, unassigned) [Compound 249, 1-{3-[4-(5-fluorofuran-2-yl)-1H-indol-3-yl]butanoyl}decahydroquinoline-5-carboxylic acid], the IC50 was 200 to 250 nM.

Take `CC(CC(=O)N1CCCC2C(C(=O)O)CCCC21)c1c[nH]c2cccc(-c3ccc(F)o3)c12` (single isomer, unassigned) [Compound 250, 1-{3-[4-(5-fluorofuran-2-yl)-1H-indol-3-yl]butanoyl}decahydroquinoline-5-carboxylic acid]: the half-maximal inhibitory concentration (IC50) was less than 100 nM.

With `CC(CC(=O)N1CCCC2C(C(=O)O)CCCC21)c1c[nH]c2cccc(-c3ccc(F)o3)c12` (single isomer, unassigned) [Compound 251, 1-{3-[4-(5-fluorofuran-2-yl)-1H-indol-3-yl]butanoyl}decahydroquinoline-5-carboxylic acid], the IC50 is less than 100 nM.

For `CC(CC(=O)N1CCCC2C(C(=O)O)CCCC21)c1c[nH]c2cccc(-c3ccc(F)cc3)c12` (single isomer, unassigned) [Compound 255, 1-{3-[4-(4-fluorophenyl)-1H-indol-3-yl]butanoyl}decahydroquinoline-5-carboxylic acid], the IC50 was less than 100 nM.

On to `CC(CC(=O)N1CCCC2C(C(=O)O)CCCC21)c1c[nH]c2cccc(-c3ccc(F)cc3)c12` (single isomer, unassigned) [Compound 256, 1-{3-[4-(4-fluorophenyl)-1H-indol-3-yl]butanoyl}decahydroquinoline-5-carboxylic acid], for which the IC50 is more than 250 nM.

`CC(C)C(CC(=O)N1CCCC2(C)CCCCC12)c1c[nH]c2cccc(F)c12` (single isomer, unassigned) [Example 115, 3-(4-fluoro-1H-indol-3-yl)-4-methyl-1-(4a-methyloctahydroquinolin-1(2H)-yl)pentan-1-one]: the IC50 was more than 250 nM.

`CC(C)C(CC(=O)N1CCCC2(C)CCCCC12)c1c[nH]c2cccc(F)c12` (single isomer, unassigned) [Example 116, 3-(4-fluoro-1H-indol-3-yl)-4-methyl-1-(4a-methyloctahydroquinolin-1(2H)-yl)pentan-1-one]: the half-maximal inhibitory concentration (IC50) is more than 250 nM.

`CC(C)C(CC(=O)N1CCCC2CCCCC21)c1c[nH]c2ccccc12` (single isomer, unassigned) [Example 117, 3-(1H-indol-3-yl)-4-methyl-1-(octahydroquinolin-1(2H)-yl)pentan-1-one]: the IC50 is less than 100 nM.

On to `CC(C)C(CC(=O)N1CCCC2CCCCC21)c1c[nH]c2ccccc12` (single isomer, unassigned) [Example 118, 3-(1H-indol-3-yl)-4-methyl-1-(octahydroquinolin-1(2H)-yl)pentan-1-one], for which the IC50 is less than 100 nM.

For the compound `CC(CC(=O)N1CCCC2CCCCC21)c1c[nH]c2ccccc12` (single isomer, unassigned) [Example 119, 3-(1H-indol-3-yl)-1-(octahydroquinolin-1(2H)-yl)butan-1-one], the half-inhibitory concentration (IC50) is less than 100 nM.

Turning to `CC(CC(=O)N1CCCC2CCCCC21)c1c[nH]c2ccccc12` (single isomer, unassigned) [Example 120, 3-(1H-indol-3-yl)-1-(octahydroquinolin-1(2H)-yl)butan-1-one], the IC50 is less than 100 nM.

For the compound `CC(CC(=O)N1CCCC2CCCCC21)c1c[nH]c2cccc(F)c12` (single isomer, unassigned) [Example 122, 3-(4-fluoro-1H-indol-3-yl)-1-(octahydroquinolin-1(2H)-yl)butan-1-one], the IC50 was less than 100 nM.

`CC(CC(=O)N1CCCC2CCCCC21)c1c[nH]c2cccc(F)c12` (single isomer, unassigned) [Example 123, 3-(4-fluoro-1H-indol-3-yl)-1-(octahydroquinolin-1(2H)-yl)butan-1-one]: the IC50 was less than 100 nM.

For `CC(CC(=O)N1CCCC2CCCCC21)c1c[nH]c2ccccc12` (single isomer, unassigned) [Example 124, 3-(1H-indol-3-yl)-1-(octahydroquinolin-1(2H)-yl)butan-1-one], the half-maximal inhibitory concentration (IC50) fell in the range of 100 to 150 nM.

On to `CC(CC(=O)N1CCCC2CCCCC21)c1c[nH]c2ccccc12` (single isomer, unassigned) [Example 125, 3-(1H-indol-3-yl)-1-(octahydroquinolin-1(2H)-yl)butan-1-one], for which the IC50 was less than 100 nM.

Take `CC(CC(=O)N1CCOC2CCCCC21)c1c[nH]c2cccc(F)c12` (single isomer, unassigned) [Example 137, 3-(4-fluoro-1H-indol-3-yl)-1-(octahydro-4H-1,4-benzoxazin-4-yl)butan-1-one]: the IC50 is 100 to 150 nM.

For `CC(CC(=O)N1CCOC2CCCCC21)c1c[nH]c2cccc(F)c12` (single isomer, unassigned) [Example 138, 3-(4-fluoro-1H-indol-3-yl)-1-(octahydro-4H-1,4-benzoxazin-4-yl)butan-1-one], the IC50 lay in the range of 150 to 200 nM.

Take `CC(CC(=O)N1CCO[C@H]2CCCCC21)c1c[nH]c2cccc(F)c12` (single isomer, unassigned) [Example 139, 3-(4-fluoro-1H-indol-3-yl)-1-[cis-(4a,8a)-octahydro-4H-1,4-benzoxazin-4-yl]butan-1-one]: the IC50 lay in the range of 100 to 150 nM.

On to `CC(CC(=O)N1CCO[C@H]2CCCCC21)c1c[nH]c2cccc(F)c12` (single isomer, unassigned) [Example 140, 3-(4-fluoro-1H-indol-3-yl)-1-[cis-(4a,8a)-octahydro-4H-1,4-benzoxazin-4-yl]butan-1-one], for which the IC50 was less than 100 nM.

`CC(CC(=O)N1CCCC2CCCCC21)c1c[nH]c2ncccc12` (single isomer, unassigned) [Example 144, 1-(octahydroquinolin-1(2H)-yl)-3-(1H-pyrrolo[2,3-b]pyridin-3-yl)butan-1-one]: the IC50 is more than 250 nM.

As to `CC(CC(=O)N1CCCC2CCCCC21)c1c[nH]c2ncccc12` (single isomer, unassigned) [Example 145, 1-(octahydroquinolin-1(2H)-yl)-3-(1H-pyrrolo[2,3-b]pyridin-3-yl)butan-1-one], the half-inhibitory concentration (IC50) was less than 100 nM.

Turning to `O=C(O)C1CCN(C(=O)CC(c2ccccc2)c2c[nH]c3cc(F)ccc23)C2CCCCC12` (single isomer, unassigned) [Example 159, 1-[3-(6-fluoro-1H-indol-3-yl)-3-phenylpropanoyl]decahydroquinoline-4-carboxylic acid], the IC50 is less than 100 nM.

Turning to `O=C(O)C1CCN(C(=O)CC(c2ccccc2)c2c[nH]c3cc(F)ccc23)C2CCCCC12` (single isomer, unassigned) [Example 160, 1-[3-(6-fluoro-1H-indol-3-yl)-3-phenylpropanoyl]decahydroquinoline-4-carboxylic acid], the IC50 was more than 250 nM.

For the compound `O=C(O)C1CCN(C(=O)CC(c2ccccc2)c2c[nH]c3cccc(F)c23)C2CCCCC12` (single isomer, unassigned) [Example 161, 1-[3-(4-fluoro-1H-indol-3-yl)-3-phenylpropanoyl]decahydroquinoline-4-carboxylic acid], the IC50 was less than 100 nM.
